Reference: patent US20230079045A1 (priority 2019, published 2023)
pEC50: −log10 of the molar value.

System: IFV A/PR/8/34
Assay: cytopathic effect (CPE) antiviral test in MDCK cells, IFV A/PR/8/34
Assay type: cell-based, influenza virus
Details: MDCK cells, CPE method, CCK-8 cell viability, 5 days; read-out: EC50(IFV A/PR/8/34)

Row | SMILES | pEC50
1 | Cn1cncc1-c1ccc2nc(-c3ccnc(C(=O)N4CCN(C(c5ccccc5)c5nnn(C(F)F)n5)CC4)c3)oc2c1 (racemic) [Compound 160, (R/S)-(4-((2-(difluoromethyl)-2H-tetrazol-5-yl)(phenyl)-13-methyl)piperazin-1-yl)(4-(6-(1-methyl-1H-imidazol-5-yl)benzo[d]oxazol-2-yl)pyridin-2-yl)methanone] | 7.74

Same assay, conditions: unidentified influenza virus, PR/8, MDCK, 120 h, read-out: EC50(IFV A/PR/8/34)

Row | SMILES | pEC50
2 | [2H]C([2H])([2H])C(C(=O)Nc1ccc2oc(-c3ccnc(C(=O)N4CCC(C(c5ccccc5)n5nnc(C)n5)CC4)c3)nc2c1)C([2H])([2H])[2H] (racemic) [Compound 132, 3,3,3-trideuterio-N-[2-[2-[4-[(R/S)-(5-methyltetrazol-2-yl)-phenyl-methyl]piperidine-1-carbonyl]-4-pyridyl]-1,3-benzoxazol-5-yl]-2-(trideuteriomethyl)propanamide] | 8.40
3 | Cc1nnn(C(c2ccccc2)C2CCN(C(=O)c3cc(-c4nc5cc(-c6cnn(C)c6)ccc5o4)ccn3)CC2)n1 (racemic) [Compound 133, (R/S)-(4-(5-(1-methyl-1H-pyrazol-4-yl)benzo[d]oxazol-2-yl)pyridin-2-yl)(4-((5-methyl-2H-tetrazol-2-yl)(phenyl)methyl)piperidin-1-yl)methanone] | 7.48
4 | Cc1nnn(C(c2ccccc2)C2CCN(C(=O)c3cc(-c4nc5cc(NC(=O)C(C)(C)F)ccc5o4)ccn3)CC2)n1 (racemic) [Compound 135, (R/S)-2-fluoro-2-methyl-N-(2-(2-(4-((5-methyl-2H-tetrazol-2-yl)(phenyl)methyl)piperidine-1-carbonyl)pyridin-4-yl)benzo[d]oxazol-5-yl)propanamide] | 7.64
5 | [2H]C([2H])([2H])C(C(=O)Nc1ccc2oc(-c3ccnc(C(=O)N4CCC(C(c5ccccc5)n5nnc(C)n5)CC4)c3)cc2c1)C([2H])([2H])[2H] (racemic) [Compound 137, 3,3,3-trideuterio-N-[2-[2-[4-[(R/S)-(5-methyltetrazol-2-yl)-phenyl-methyl]piperidine-1-carbonyl]-4-pyridyl]benzofuran-5-yl]-2-(trideuteriomethyl)propanamide] | 7.96
6 | Cc1nnn(C(c2ccccc2)C2CCN(C(=O)c3cc(-c4nc5cc(-c6cnsc6)ccc5o4)ccn3)CC2)n1 (racemic) [Compound 140, (R/S)-(4-(5-(isothiazol-4-yl)benzo[d]oxazol-2-yl)pyridin-2-yl)(4-((5-methyl-2H-tetrazol-2-yl)(phenyl)methyl)piperidin-1-yl)methanone] | 8.40
7 | CC(C)(F)C(=O)Nc1ccc2oc(-c3ccnc(C(=O)N4CCN(C(c5ccccc5)c5nnn(C(F)F)n5)CC4)c3)cc2c1 (racemic) [Compound 141, (R/S)—N-(2-(2-(4-((2-(difluoromethyl)-2H-tetrazol-5-yl)(phenyl)methyl)piperazine-1-carbonyl)pyridin-4-yl)benzofuran-5-yl)-2-fluoro-2-methylpropanamide] | 7.80
8 | Cc1nnn(C(c2ccccc2)C2CCN(C(=O)c3cc(-c4cc5cc(NC(=O)C(C)(C)F)ccc5o4)ccn3)CC2)n1 (racemic) [Compound 142, (R/S)-2-fluoro-2-methyl-N-(2-(2-(4-((5-methyl-2H-tetrazol-2-yl)(phenyl)methyl)piperidine-1-carbonyl)pyridin-4-yl)benzofuran-5-yl)propanamide] | 7.64
9 | O=C(c1cc(-c2cc3cc(NC(=O)C4(F)CC4)ccc3o2)ccn1)N1CCN(C(c2ccccc2)c2nnn(C(F)F)n2)CC1 (racemic) [Compound 143, (R/S)—N-(2-(2-(4-((2-(difluoromethyl)-2H-tetrazol-5-yl)(phenyl)methyl)piperazine-1-carbonyl)pyridin-4-yl)benzofuran-5-yl)-1-fluorocyclopropane-1-carboxamide] | 7.89
10 | Cc1nnn(C(c2ccccc2)C2CCN(C(=O)c3cc(-c4cc5cc(NC(=O)C6(F)CC6)ccc5o4)ccn3)CC2)n1 (racemic) [Compound 144] | 8.15
11 | CC(C)n1cc(-c2ccc3oc(-c4ccnc(C(=O)N5CCN(C(c6ccccc6)c6nnn(C(F)F)n6)CC5)c4)nc3c2)cn1 (racemic) [Compound 146, (R/S)-(4-((2-(difluoromethyl)-2H-tetrazol-5-yl)(phenyl)methyl)piperazin-1-yl)(4-(5-(1-isopropyl-1H-pyrazol-4-yl)benzo[d]oxazol-2-yl)pyridin-2-yl)methanone] | 7.59
12 | Cn1cnc(-c2ccc3oc(-c4ccnc(C(=O)N5CCN(C(c6ccccc6)c6nnn(C(F)F)n6)CC5)c4)nc3c2)c1 (racemic) [Compound 147, (R/S)-(4-((2-(difluoromethyl)-2H-tetrazol-5-yl)(phenyl)methyl)piperazin-1-yl)(4-(5-(1-methyl-1H-imidazol-4-yl)benzo[d]oxazol-2-yl)pyridin-2-yl)methanone] | 7.85
13 | O=C(c1cc(-c2nc3cc(-c4cnn(C5CC5)c4)ccc3o2)ccn1)N1CCN(C(c2ccccc2)c2nnn(C(F)F)n2)CC1 (racemic) [Compound 148, (R/S)-(4-(5-(1-cyclopropyl-1H-pyrazol-4-yl)benzo[d]oxazol-2-yl)pyridin-2-yl)(4-((2-(difluoromethyl)-2H-tetrazol-5-yl)(phenyl)methyl)piperazin-1-yl)methanone] | 7.48
14 | O=C(Nc1ccc2oc(-c3ccnc(C(=O)N4CCN(C(c5ccccc5)c5nnn(CF)n5)CC4)c3)nc2c1)[C@@H]1C[C@@H]1F (mixture of isomers) [Compound 150, (1S,2S)-2-fluoro-N-(2-(2-(4-((S/R)-(2-(fluoromethyl)-2H-tetrazol-5-yl)(phenyl)methyl)piperazine-1-carbonyl)pyridin-4-yl)benzo[d]oxazol-5-yl)cyclopropane-1-carboxamide] | 8.10
15 | O=C(c1cc(-c2nc3cc(-c4cnn(C5COC5)c4)ccc3o2)ccn1)N1CCN(C(c2ccccc2)c2nnn(C(F)F)n2)CC1 (racemic) [Compound 151, (R/S)-(4-((2-(difluoromethyl)-2H-tetrazol-5-yl)(phenyl)methyl)piperazin-1-yl)(4-(5-(1-(oxetan-3-yl)-1H-pyrazol-4-yl)benzo[d]oxazol-2-yl)pyridin-2-yl)methanone] | 7.42
16 | Cn1nccc1-c1ccc2oc(-c3ccnc(C(=O)N4CCN(C(c5ccccc5)c5nnn(C(F)F)n5)CC4)c3)nc2c1 (racemic) [Compound 152, (R/S)-(4-((2-(difluoromethyl)-2H-tetrazol-5-yl)(phenyl)methyl)piperazin-1-yl)(4-(5-(1-methyl-1H-pyrazol-5-yl)benzo[d]oxazol-2-yl)pyridin-2-yl)methanone] | 8.30
17 | Cn1ccc(-c2ccc3oc(-c4ccnc(C(=O)N5CCN(C(c6ccccc6)c6nnn(C(F)F)n6)CC5)c4)nc3c2)n1 (racemic) [Compound 153, (R/S)-(4-((2-(difluoromethyl)-2H-tetrazol-5-yl)(phenyl)methyl)piperazin-1-yl)(4-(5-(1-methyl-1H-pyrazol-3-yl)benzo[d]oxazol-2-yl)pyridin-2-yl)methanone] | 8.15
18 | Cc1c(-c2ccc3oc(-c4ccnc(C(=O)N5CCN(C(c6ccccc6)c6nnn(C(F)F)n6)CC5)c4)nc3c2)cnn1C (racemic) [Compound 154, (R/S)-(4-((2-(difluoromethyl)-2H-tetrazol-5-yl)(phenyl)methyl)piperazin-1-yl)(4-(5-(1,5-dimethyl-1H-pyrazol-4-yl)benzo[d]oxazol-2-yl)pyridin-2-yl)methanone] | 8.30
19 | Cc1n[nH]cc1-c1ccc2oc(-c3ccnc(C(=O)N4CCN(C(c5ccccc5)c5nnn(C(F)F)n5)CC4)c3)nc2c1 (racemic) [Compound 155, (R/S)-(4-((2-(difluoromethyl)-2H-tetrazol-5-yl)(phenyl)methyl)piperazin-1-yl)(4-(5-(3-methyl-1H-pyrazol-4-yl)benzo[d]oxazol-2-yl)pyridin-2-yl)methanone] | 9.00
20 | Cc1n[nH]c(C)c1-c1ccc2oc(-c3ccnc(C(=O)N4CCN(C(c5ccccc5)c5nnn(C(F)F)n5)CC4)c3)nc2c1 (racemic) [Compound 156, (R/S)-(4-((2-(difluoromethyl)-2H-tetrazol-5-yl)(phenyl)methyl)piperazin-1-yl)(4-(5-(3,5-dimethyl-1H-pyrazol-4-yl)benzo[d]oxazol-2-yl)pyridin-2-yl)methanone] | 8.15
21 | Cc1cn(-c2ccc3oc(-c4ccnc(C(=O)N5CCN(C(c6ccccc6)c6nnn(C(F)F)n6)CC5)c4)nc3c2)cn1 (racemic) [Compound 158, (R/S)-(4-((2-(difluoromethyl)-2H-tetrazol-5-yl)(phenyl)methyl)piperazin-1-yl)(4-(5-(4-methyl-1H-imidazol-1-yl)benzo[d]oxazol-2-yl)pyridin-2-yl)methanone] | 8.52
22 | O=C(c1cc(-c2nc3cc(-c4cnn(C(F)(F)F)c4)ccc3o2)ccn1)N1CCN(C(c2ccccc2)c2nnn(C(F)F)n2)CC1 (racemic) [Compound 161, (R/S)-(4-((2-(difluoromethyl)-2H-tetrazol-5-yl)(phenyl)methyl)piperazin-1-yl)(4-(5-(1-(trifluoromethyl)-1H-pyrazol-4-yl)benzo[d]oxazol-2-yl)pyridin-2-yl)methanone] | 7.70
23 | Cc1ncc(-c2ccc3oc(-c4ccnc(C(=O)N5CCN(C(c6ccccc6)c6nnn(C(F)F)n6)CC5)c4)nc3c2)n1C (racemic) [Compound 162, (R/S)-(4-((2-(difluoromethyl)-2H-tetrazol-5-yl)(phenyl)methyl)piperazin-1-yl)(4-(5-(1,2-dimethyl-1H-imidazol-5-yl)benzo[d]oxazol-2-yl)pyridin-2-yl)methanone] | 8.52
24 | [2H]C([2H])([2H])C(C(=O)Nc1ccc2oc(-c3ccnc(C(=O)N4CCC(C(c5ccccc5)n5nnc(C(F)F)n5)CC4)c3)nc2c1)C([2H])([2H])[2H] (racemic) [Compound 163, 3,3,3-tideuterio-N-[2-[2-[4-[(R/S)-[5-(difluoromethyl)tetrazol-2-yl]-phenyl-methyl]piperidine-1-carbonyl]-4-pyridyl]-1,3-benzoxazol-5-yl]-2-(trideuteriomethyl)propanamide] | 8.10
